Laboratory results: US8080571B2, “Tricyclic angiotensin II agonists” (Vicore Pharma AB, priority 2005, dated 2011)

System: duodenal mucosa
Experiment: Test C: duodenal mucosal alkaline secretion assay
Type: in vivo, rat
Details: co-administration of the AT2 receptor antagonist with title compounds
Source text: Duodenal Mucosal Alkaline Secretion Assay
Compounds were exposed to the duodenal mucosa in barbiturate-anaesthetised rats prepared for in situ titration of duodenal mucosal alkaline secretion, according to the methodology described by Flemström et al in Am. J. Physiol. (1982) 243, G348.

Cc1cc(Cn2cnc3c2C[C@@H](C(=O)O)N(C(=O)C(c2ccccc2)c2ccccc2)C3)ccc1N(C)C [PD123319]
effect on the stimulation of mucosal alkalisation by the title compounds: blocked
